Test [1] relates to Septoria tritici (ATCC 26517). Nature of the test: Minimum Inhibitory Concentration (MIC) vs. Septoria tritici, CLSI-based microdilution. It counts as cell-based. The conditions noted are these: Zymoseptoria tritici, ATCC26517, 168 h; MIC = 50% reduction in growth of S. tritici, 7 days at 22 °C, RPMI/MOPS, 1% DMSO; read-out: Septoria Rating (MIC). On the procedure: Compounds of the present disclosure were assessed for their ability to inhibit the growth of a common strain of the fungal plant pathogen Septoria tritici (ATCC 26517) using a procedure based on a Clinical and Laboratory Standards Institute (CLSI) microdilution assay protocol for filamentous fungi. Stock solutions of the test compounds and standards were prepared in DMSO at 6400 μg/mL. Each stock solution was used to prepare a 2-fold dilution series ranging from 16 to 0.016 μg/mL (total of 11 compound concentrations) in RPMI-1640 (Roswell Park Memorial Institute) medium containing 3-(N-morpholino)propanesulfonic acid (MOPS) buffer and 2% DMSO. A 100 μL aliquot of the dilutions was added to columns 1 (16 μg/mL compound) through 11 (0.016 μg/mL compound) of a 96-well microtiter plate. This format was replicated in a second row of the microtiter plate. Thus, each microtiter plate could include 11 concentrations of four test or control compounds replicated twice. A 100 μL aliquot of RPMI-1640/MOPS/2% DMSO medium was added to column 12 (no compound control) of the microtiter plate. A fresh culture of S. tritici was used to prepare a solution of approximately 5×10^4 colony-forming units per milliliter (cfu/mL) in RPMI/MOPS medium without DMSO. A 100 μL aliquot of this solution was added to all 96 wells in the microtiter plate. […] In each case of Table 3 the Septoria rating scale is as follows: […]
In general terms: Dilution methods test growth across graded concentrations, often in twofold steps.

Another test has as its system T. rubrum. As to the kind of experiment: Minimum Inhibitory Concentration (MIC) (T. rubrum), CLSI M27-A2. The format is cell-based. The following applies: Trichophyton rubrum; about 50% growth reduction, approx. 96 h at 35 °C, RPMI+MOPS. On the procedure: Compounds of the present disclosure were assessed for their ability to inhibit the growth of common strains of fungus, T. rubrum using a standardized procedure (CLSI M27-A2). Stock solutions of the test compounds and standards were prepared in DMSO at 1,600 μg/mL (T. rubrum). Eleven, serial, one-half dilutions of compounds were prepared in 96-well plates in RPMI+MOPS. The assay concentration ranges were 8-0.001 μg/mL (T. rubrum). Cell suspensions of T. rubrum were prepared and added to each well at concentrations of approximately 3.7×10^3 colony-forming-units per milliliter (cfu/mL). All testing was in duplicate. The inoculated plates were incubated for approximately 96 h at 35±1° C. At the completion of incubation the wells of each plate were evaluated visually for the presence of fungal growth. […] For voriconazole the MIC was the concentration which reduced T rubrum growth by 50% (per CLSI, M27-A2). For QC purposes C. krusei isolate ATCC 6258 (4.0×10^3 cfu/mL) was included in the VOR assay.

Test [2] has as its system Puccinia recondita tritici = Puccinia triticina (PUCCRT). As to the kind of experiment: Fungicidal activity vs. leaf rust on wheat plants (1-day protectant spray). The following applies: wheat (variety Yuma) sprayed at 50 ppm, inoculated next day, disease severity evaluated 7-9 days later, read-out: Puccinia Rating (% Disease Control @ 50 ppm). The format is in vivo. From the text:
Each pot contained 3-8 seedlings. These plants were sprayed until wet with the formulated test compounds. The compounds were formulated at 50 ppm in 10 vol. % acetone plus 90 vol. % Triton X water (deionized water 99.99 wt %+0.01 wt % Triton X100), giving a “formulated test compound.” Formulated test compounds were applied to plants using a turn table sprayer fitted with two opposing air atomization nozzles which delivered approximately 1500 L/ha of spray volume. On the following day, the leaves were inoculated with an aqueous spore suspension of Puccinia recondita tritici and the plants were kept in high humidity overnight to permit spores to germinate and infect the leaf. The plants were then transferred to a greenhouse until disease developed on untreated control plants. Disease severity was evaluated 7-9 days later, depending on the speed of disease development. In each case of Table 3, the Puccinia rating scale is as follows: […]

Values after ≈ are worked out from the molar mass of the structure shown.

For the compound `OC(c1cncnc1)(c1ccc(F)cc1F)C(F)(F)c1ccc(C#Cc2ccc(F)cc2)cn1` (racemic) [Example 2, 1-(2,4-difluorophenyl)-2,2-difluoro-2-(5-((4-fluorophenyl)ethynyl)pyridin-2-yl)-1-(pyrimidin-5-yl)ethanol], the MIC (in general, the lowest concentration found to suppress growth) in test [1] was at most 0.5 µg/mL; in the test with T. rubrum, 0.25 µg/mL (≈ 0.535 µM). The pest or weed control at 50 ppm in test [2] lay in the range of 80 to 100%.

For `C[C@@H](c1ncncc1F)[C@](O)(Cn1cncn1)c1ccc(F)cc1F` [Voriconazole, voriconazole, reference compound], inhibition of growth in the test with T. rubrum (MIC) required 0.062 µg/mL (≈ 0.177 µM).

With `N#Cc1ccc(C#Cc2ccc(C(F)(F)C(O)(c3cncnc3)c3ccc(F)cc3F)nc2)cc1` (racemic) [Example 5, 4-((6-(2-(2,4-difluorophenyl)-1,1-difluoro-2-hydroxy-2-(pyrimidin-5-yl)ethyl)pyridin-3-yl)ethynyl)benzonitrile], the MIC in test [1] is at most 0.5 µg/mL. Further, the pest or weed control at 50 ppm in test [2] lay in the range of 80 to 100%.

For the compound `CNc1ccc(C#Cc2ccc(C(F)(F)C(O)(c3cncnc3)c3ccc(F)cc3F)nc2)cc1` (racemic) [Example 7, 1-(2,4-difluorophenyl)-2,2-difluoro-2-(5-((4-(methylamino)phenyl)ethynyl)pyridin-2-yl)-1-(pyrimidin-5-yl)ethanol], in test [1], the MIC was at most 0.5 µg/mL. Besides, in test [2], the pest or weed control at 50 ppm was below 40%.

For `CC(C)C(O)(c1cncnc1)C(F)(F)c1ccc(C#Cc2ccc(C#N)cc2)cn1` (racemic) [Example 35], the MIC in test [1] was 0.5 to 1.5 µg/mL (≈ 1.24 to 3.71 µM). Also, in test [2], the pest or weed control at 50 ppm was below 40%.

As for `OC(c1cncnc1)(c1ccc(F)cc1F)C(F)(F)c1ccc(-c2ccc(OC(F)(F)F)cc2)cn1` (racemic) [Example 3, 1-(2,4-difluorophenyl)-2,2-difluoro-1-(pyrimidin-5-yl)-2-(5-(4-(trifluoromethoxy)phenyl)pyridin-2-yl)ethanol], the MIC in test [1] lay in the range of 0.5 to 1.5 µg/mL (≈ 0.982 to 2.94 µM). Moreover, the pest or weed control at 50 ppm in test [2] is below 40%.

On to `OC(c1cncnc1)(c1ccc(F)cc1F)C(F)(F)c1ccc(OCc2ccc(Cl)cc2F)cn1` (racemic) [Example 10], for which, in test [1], the MIC was at most 0.5 µg/mL. In addition, the pest or weed control at 50 ppm in test [2] lay in the range of 80 to 100%.

As to `O=C(Nc1ccc(C#Cc2ccc(C(F)(F)C(O)(c3cncnc3)c3ccc(F)cc3F)nc2)cc1)C(F)(F)F` (racemic) [Example 38], in test [1], the MIC was 0.5 to 1.5 µg/mL (≈ 0.892 to 2.68 µM). The pest or weed control at 50 ppm in test [2] is below 40%.

For the compound `Nc1ccc(C#Cc2ccc(C(F)(F)C(O)(c3ccc(Cl)cc3)c3cncnc3)nc2)cc1` (racemic) [Example 55], the MIC in test [1] was in the range of 0.5 to 1.5 µg/mL (≈ 1.08 to 3.24 µM). Also, the pest or weed control at 50 ppm in test [2] is below 40%.

Regarding `OC(c1cncnc1)(c1ccc(F)cc1F)C(F)(F)c1ccc(OCc2ccc(F)c(F)c2)cn1` (racemic) [Example 60], the MIC in test [1] lay within 0.5 to 1.5 µg/mL (≈ 1.02 to 3.05 µM). Besides, in test [2], the pest or weed control at 50 ppm fell in the range of 60 to 79%.

In the case of `OC(c1cncnc1)(C1CC1)C(F)(F)c1ccc(C#Cc2ccc(F)cc2)cn1` (racemic) [Example 70, 1-Cyclopropyl-2,2-difluoro-2-(5-((4-fluorophenyl)ethynyl)pyridin-2-yl)-1-(pyrimidin-5-yl)ethanol], the MIC in test [1] was at most 0.5 µg/mL. Also, in test [2], the pest or weed control at 50 ppm lay in the range of 80 to 100%.

Consider `COc1ccc(C#Cc2ccc(C(F)(F)C(O)(c3cncnc3)c3ccc(F)cc3F)nc2)cc1` (racemic) [Example 15], for which the MIC in test [1] is at most 0.5 µg/mL. In addition, the pest or weed control at 50 ppm in test [2] is 60 to 79%.

Turning to `CC(C)(C)C(O)(c1cncnc1)C(F)(F)c1ccc(C#Cc2ccc(Cl)cc2)cn1` (racemic) [Example 62], the MIC in test [1] is at most 0.5 µg/mL. In addition, the pest or weed control at 50 ppm in test [2] was below 40%.

For `CC(C)(C)C(O)(c1cncnc1)C(F)(F)c1ccc(C#Cc2ccc(F)cc2)cn1` (racemic) [Example 48], the MIC in test [1] was at most 0.5 µg/mL. Besides, the pest or weed control at 50 ppm in test [2] was below 40%.

As to `N#Cc1ccc(C#Cc2ccc(C(F)(F)C(O)(c3ccc(Cl)cc3)c3cncnc3)nc2)cc1` (racemic) [Example 43], in test [1], the MIC is at most 0.5 µg/mL. In addition, the pest or weed control at 50 ppm in test [2] is 60 to 79%.

Turning to `OC(c1nc[nH]n1)(c1ccc(F)cc1F)C(F)(F)c1ccc(C#Cc2ccc(F)cc2)cn1` (racemic) [Example 27], the MIC in test [1] is above 4 µg/mL. For the same compound, the pest or weed control at 50 ppm in test [2] is below 40%.

On to `OC(c1cncnc1)(c1ccc(F)cc1F)C(F)(F)c1ccc(Br)cn1` (racemic) [Example 1, 2-(5-bromopyridin-2-yl)-1-(2,4-difluorophenyl)-2,2-difluoro-1-(pyrimidin-5-yl)ethanol], for which the MIC in test [1] was 0.5 to 1.5 µg/mL (≈ 1.17 to 3.5 µM); against T. rubrum, 0.125 µg/mL (≈ 0.292 µM).

For the compound `N#Cc1cccc(C#Cc2ccc(C(F)(F)C(O)(c3cncnc3)c3ccc(F)cc3F)nc2)c1` (racemic) [Example 18, 3-((6-(2-(2,4-Difluorophenyl)-1,1-difluoro-2-hydroxy-2-(pyrimidin-5-yl)ethyl)pyridin-3-yl)ethynyl)benzonitrile], in test [1], the MIC was at most 0.5 µg/mL. The pest or weed control at 50 ppm in test [2] fell in the range of 80 to 100%.

For `OC(c1cncnc1)(c1ccc(F)cc1F)C(F)(F)c1ccc(OCc2ccc(C(F)(F)F)cc2)cn1` (racemic) [Example 65], in test [1], the minimum inhibitory concentration (MIC) is at most 0.5 µg/mL. Besides, in test [2], the pest or weed control at 50 ppm fell in the range of 80 to 100%.

For the compound `N#Cc1ccc(C#Cc2ccc(C(F)(F)C(O)(c3cncnc3)c3ccc(F)cc3F)nc2)cc1F` (racemic) [Example 11], the minimal inhibitory concentration (MIC) in test [1] was at most 0.5 µg/mL. The pest or weed control at 50 ppm in test [2] is 80 to 100%.

Take `OCC#Cc1ccc(C(F)(F)C(O)(c2cncnc2)c2ccc(F)cc2F)nc1` (racemic) [Example 8, 3-(6-(2-(2,4-difluorophenyl)-1,1-difluoro-2-hydroxy-2-(pyrimidin-5-yl)ethyl)pyridin-3-yl)prop-2-yn-1-ol]: the MIC in test [1] lay within 0.5 to 1.5 µg/mL (≈ 1.24 to 3.72 µM). In addition, the pest or weed control at 50 ppm in test [2] is 80 to 100%.

With `OC(c1cncnc1)(c1ccc(F)cc1F)C(F)(F)c1ccc(C#Cc2ccc(Cl)cc2)cn1` (racemic) [Example 13], the minimum inhibitory concentration (MIC) in test [1] is at most 0.5 µg/mL. In addition, the pest or weed control at 50 ppm in test [2] was in the range of 80 to 100%.

Turning to `OC(c1cncnc1)(c1ccc(F)cc1F)C(F)(F)c1ccc(C#Cc2ccc(OC(F)F)cc2)cn1` (racemic) [Example 21, 2-(5-((4-(Difluoromethoxy)phenyl)ethynyl)pyridin-2-yl)-1-(2,4-difluorophenyl)-2,2-difluoro-1-(pyrimidin-5-yl)ethanol], the MIC in test [1] is at most 0.5 µg/mL. In test [2], the pest or weed control at 50 ppm lay in the range of 80 to 100%.

In the case of `COc1ccc(Oc2ccc(C(F)(F)C(O)(c3cncnc3)c3ccc(F)cc3F)nc2)cc1` (racemic) [Example 42], in test [1], the MIC lay within 0.5 to 1.5 µg/mL (≈ 1.06 to 3.18 µM). Further, the pest or weed control at 50 ppm in test [2] fell in the range of 80 to 100%.

On to `OC(c1cncnc1)(c1ccc(F)cc1F)C(F)(F)c1ccc(Oc2cccc(Cl)c2)cn1` (racemic) [Example 47], for which the minimum inhibitory concentration (MIC) in test [1] fell in the range of 0.5 to 1.5 µg/mL (≈ 1.05 to 3.15 µM). In addition, in test [2], the pest or weed control at 50 ppm lay within 80 to 100%.

Turning to `N#Cc1ccc(C#Cc2ccc(C(F)(F)C(O)(c3cncnc3)c3ccc(F)cc3F)nc2)c(F)c1` (racemic) [Example 12, 4-((6-(2-(2,4-Difluorophenyl)-1,1-difluoro-2-hydroxy-2-(pyrimidin-5-yl)ethyl)pyridin-3-yl)ethynyl)-3-fluorobenzonitrile], the minimum inhibitory concentration (MIC) in test [1] was at most 0.5 µg/mL. The pest or weed control at 50 ppm in test [2] was 80 to 100%.

With `N#Cc1ccc(C#Cc2ccc(C(F)(F)C(O)(c3cncnc3)c3ccc(F)cc3F)nc2)s1` (racemic) [Example 37], the MIC in test [1] is at most 0.5 µg/mL. Also, the pest or weed control at 50 ppm in test [2] was in the range of 60 to 79%.

The values above are taken from patent US20150246898A1, “METALLOENZYME INHIBITOR COMPOUNDS” (DOW AGROSCIENCES LLC, priority 2012, published 2015).
